From US20190327974A1, “SYNERGISTS FOR IMPROVED PESTICIDES” (priority 2017, published 2019)

Experiments:
[1] = molecular target: T1, Gly137Asp LcαE7 (Gly137Asp variant of αE7 carboxylesterase) (Lucilia cuprina, UniProt Q25252, G137D); assay: Inhibition of Gly137Asp αE7 (competition assay, hydrolysis of 4-nitrophenol butyrate), dose-response curves of FIG. 8; format: biochemical
T1 construct: GenBank number is of the wild-type parent
Experimental: FIG. 8 presents dose-response curves for the inhibition of Glyl37Asp αE7. Inhibition of the hydrolysis of […] was determined for phenyl boronic acid (PBA) and compounds 1-5 and 3.1-3.12. Three (technical) replicate measurements of enzyme activity were performed for each concentration of boronic acid. The concentration of boronic acid required to inhibit 50% of activity (IC50) was determined by fitting a sigmoidal dose-response curve to plots of percentage inhibition. The curve was constrained to 0 (bottom) and 100% (top) inhibition with a variable Hill slope. […]
His6-tagged proteins were expressed in BL21(DE3) E. coli (Invitrogen) at 26° C. for 18 hours. Cells were collected by centrifugation, resuspended in lysis buffer (300 mM NaCl, 10 mM imidazole, 50 mM HEPES pH 7.5) and lysed by sonication. Cell debris was pelleted by centrifugation and the soluble fraction was loaded onto a HisTrap-HP Ni-Sepharose column (GE Healthcare). Bound protein was eluted with lysis buffer supplemented with 300 mM imidazole. Fractions containing the eluted protein were concentrated with a 30 kDa molecular mass cutoff centrifuge concentrator (Amicon) and loaded onto a HiLoad 26/60 Superdex-200 size-exclusion column (GE Healthcare) pre-equilibrated with 150 mM NaCl, 20 mM HEPES pH 7.5. Eluted fractions containing the monomeric protein were pooled for enzyme inhibition assays or crystallization. Protein concentration was determined by measuring the absorbance at 280 nm with an extinction coefficient calculated using the Protparam online server (Gasteiger, E. et al. Protein identification and analysis tools on the ExPASy server. Proteomics Protoc. Handb. 571-607 (2005). doi:10.1385/1-59259-890-0:571).
Inhibition of wild-type αE7 and the Gly137Asp αE7 variant was determined by a competition assay between the native-substrate analogue 4-nitrophenol butyrate (Sigma) and the boronic acid compounds. Initially, the Michalis constant (KM) with 4-nitrophenol butyrate was measured for both enzymes to determine an appropriate concentration of substrate for use in the competition assays. Formation of the 4-nitrophenolate product of hydrolysis was monitored at 405 nm in the presence of enzyme and eight different concentrations of substrate. 4-nitrophenol butyrate was prepared in methanol to 100 mM and serially diluted 1-in-2 to achieve concentrations from 100 mM to 0.8 mM. Enzyme stocks were prepared in 4 mg/ml bovine serum albumin (Sigma) to maintain enzyme stability. Reactions were prepared by pipetting 178 μl assay buffer (100 mM NaCl, 20 mM HEPES pH 7.5) and 2 μl substrate (final concentrations of 1000 to 8 μM) into 300 μl wells of a 96-well plate. The reaction was initiated by the addition of 20 μl enzyme (final concentration 2.5 nM for wildtype αE7 and 4 nM for Gly137Asp αE7). Product formation was monitored for four minutes at room temperature using an Epoch microplate spectrophotometer (BioTek) and the initial rates of ester hydrolysis were determined by linear regression using GraphPad Prism. The Michalis constant was determined by fitting the initial rates to the Michalis-Menton equation (FIG. 10).
Enzyme inhibition with the boronic acid compounds was determined by assaying the initial rate of 4-nitrophenol butyrate hydrolysis in the presence of either neat DMSO or the boronic acid compounds in DMSO. Compounds were prepared by serially diluting 1-in-3 an initial 10 mM stock to achieve concentrations from 10 mM to 2 nM. Reactions were prepared by pipetting 178 μl assay buffer supplemented with substrate to a final concentration equal to the KM of the enzyme (15 μM for wildtype αE7 and 250 μM for Gly137Asp αE7) into wells of a 96-well plate. 2 μl neat DMSO or 2 μl serially diluted inhibitor (final concentrations of 100 μM to 20 pM) were added to the wells. The reaction was initiated by the addition of 20 μl enzyme (final concentration 0.5 nM for wildtype αE7 and 10 nM for Glyl37Asp αE7). […]

293T = assay: Cell toxicity panel, viability (luminescence); format: cell-based; details: Homo sapiens, HEK-293T; Readout: Luminescence; read-out: IC50 Viability Cells, Cell line: 293T
Experimental: To further establish the safety and cell toxicity of compounds according to this invention, their IC50 in killing a broad panel of human cell lines (including both cancerous and non-cancerous) cell lines was determined, and their cell toxicity was tested.

HB-2 cells = assay: Cellular toxicity, Cell Titer Glo; format: cell-based, human; details: for IC50: Homo sapiens, 48 h incubation, Cell Titer Glo, read-out: Viability IC50 HB-2; for toxicity to HB-2 cells (in words): 48 h, up to 100 μM
Experimental: (§1) A seven-point, two-fold dose response series, with a 100 uM as the upper limit and a DMSO-only control point was generated using an Echo 550 liquid handler (Labcyte Inc.) in 384-well plates. Subsequently, the human breast cell lines MDA-MB-231 (tumorigenic) and HB2 (non-tumorigenic) were seeded (1000 cells/well) using a multi-drop Combi (Thermo Fisher Scientific) on top of the compounds. Plates were then incubated at 37° C. and 5% CO2 for 48 hours upon which cell viability was assessed by adding CellTiter-Glo® (Promega) to the reaction. The luminescence signal was measured on a Pherastar FS multi-mode plate reader (BMG Labtech).

MDA-MB-231 cells = assay: Cellular toxicity, Cell Titer Glo; format: cell-based, human; details: for IC50: Homo sapiens, MDA-MB-231, 48 h incubation, Cell Titer Glo, read-out: Viability IC50 MDA-MB-231; for toxicity to MDA-MB-231 cells (in words): 48 h, up to 100 μM
Experimental: as §1

[2] = molecular target: T2, Electrophorus electricus AChE (Electrophorus electricus, UniProt O42275); assay: AChE selectivity (Ellman, acetylthiocholine); format: biochemical; details: for Ki: tested to solubility limit, read-out: Ki Ee AChE
T2 construct: purchased Sigma Type V-S
T2 sequence (O42275 24-633): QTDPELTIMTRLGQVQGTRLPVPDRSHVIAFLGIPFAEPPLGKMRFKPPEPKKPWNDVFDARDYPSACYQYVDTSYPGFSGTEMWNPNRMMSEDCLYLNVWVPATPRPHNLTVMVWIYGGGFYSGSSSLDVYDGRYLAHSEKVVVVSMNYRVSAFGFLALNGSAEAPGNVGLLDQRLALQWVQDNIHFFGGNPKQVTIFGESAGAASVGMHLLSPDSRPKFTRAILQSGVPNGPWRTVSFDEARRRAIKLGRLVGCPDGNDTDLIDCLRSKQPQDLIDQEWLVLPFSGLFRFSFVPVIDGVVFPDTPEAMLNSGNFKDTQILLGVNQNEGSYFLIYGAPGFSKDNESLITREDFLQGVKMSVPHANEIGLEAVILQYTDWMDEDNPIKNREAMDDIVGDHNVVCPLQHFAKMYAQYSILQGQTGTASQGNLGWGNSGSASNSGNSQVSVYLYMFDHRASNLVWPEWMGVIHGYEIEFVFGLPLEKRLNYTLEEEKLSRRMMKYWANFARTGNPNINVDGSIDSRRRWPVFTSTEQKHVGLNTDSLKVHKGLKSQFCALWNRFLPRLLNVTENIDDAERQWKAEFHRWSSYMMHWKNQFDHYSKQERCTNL
Experimental: Initially, the KM for AChE with the substrate acetylthiocholine was determined by monitoring thiocholine production with 5,5′-dithiobis(2-nitrobenzoic acid) (DTNB) at 412 nm. Acetylthiocholine was prepared in assay buffer (100 mM NaH2PO4 pH 7.4) to 10 mM and serially diluted 1-in-2 to achieve concentrations from 10 mM to 0.08 mM while AChE was prepared in 20 mM NaH2PO4 pH 7.0 supplemented with 4 mg/ml BSA to 0.4 nM. […] The reaction was initiated by the addition of 20 μl AChE (40 pM final concentration). Product formation was monitored for six minutes at room temperature and the initial rates of thioester hydrolysis were determined by linear regression using GraphPad Prism. The Michalis constant was determined as before (FIG. 10).
AChE inhibition was determined by assaying the initial rate of acetylthiocholine hydrolysis in the presence of either neat DMSO or the boronic acid compounds in DMSO. […] Reactions were prepared by pipetting 178 μl assay buffer supplemented with acetylthiocholine (to a final concentration of 100 μM) and DTBN (to a final concentration of 300 μM) into wells of a 96-well plate. […] The reaction was initiated by the addition of 20 μl enzyme (final concentration 40 pM). Product formation was monitored for six minutes at room temperature and the initial rates of thioester hydrolysis were determined by linear regression. IC50 and Ki values were determined as described previously (FIG. 9).

T1 sequence (Q25252 entry or part of it G137D): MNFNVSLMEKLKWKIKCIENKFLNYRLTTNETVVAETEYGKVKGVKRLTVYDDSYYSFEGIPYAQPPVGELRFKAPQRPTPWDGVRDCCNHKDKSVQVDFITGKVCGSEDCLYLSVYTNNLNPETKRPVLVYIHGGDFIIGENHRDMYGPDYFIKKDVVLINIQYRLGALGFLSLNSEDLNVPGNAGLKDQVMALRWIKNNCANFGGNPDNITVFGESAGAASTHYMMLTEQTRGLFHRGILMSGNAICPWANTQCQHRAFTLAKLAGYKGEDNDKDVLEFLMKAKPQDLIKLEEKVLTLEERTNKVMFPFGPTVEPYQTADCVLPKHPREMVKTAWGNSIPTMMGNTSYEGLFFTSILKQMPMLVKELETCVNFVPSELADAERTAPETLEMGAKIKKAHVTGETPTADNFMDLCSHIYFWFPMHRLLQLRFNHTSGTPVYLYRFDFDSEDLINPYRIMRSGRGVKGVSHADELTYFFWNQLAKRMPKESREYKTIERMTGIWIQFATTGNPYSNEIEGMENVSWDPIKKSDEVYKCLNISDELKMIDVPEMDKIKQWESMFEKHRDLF

Compound | IC50 [1] | IC50 (293T) | Ki [2] | further results
OB(O)c1cc(Br)cc2c1OCC2 [Compound 3.5] | 0.85 µM |  |  | 
OB(O)c1cc(Br)cc(OC(F)(F)F)c1 [Compound 3.8] | 0.21 µM |  |  | 
OB(O)c1cc(Br)cc(N2CCCC2)c1 [Compound 3] | 0.22 µM | > 99.8 µM | 270 µM | IC50 (HB-2 cells): > 100 µM; IC50 (MDA-MB-231 cells): > 100 µM; inhibition of Electrophorus electricus acetylcholinesterase ([2]; tested to solubility limits (FIG. 9)): > 50%
O=C(c1cc(Cl)cc(B(O)O)c1)N1CCOCC1 [Compound 3.11] | 2 µM |  |  | 
OB(O)c1ccc2ccccc2c1 [Compound 4] | 0.37 µM | > 99.8 µM | > 1000 µM | IC50 (HB-2 cells): > 100 µM; IC50 (MDA-MB-231 cells): > 100 µM
CC(C)(C)Oc1ccc(B(O)O)cc1Br [Compound 3.12] | 1.9 µM |  |  | 
OB(O)c1cc(Br)cc(OCc2ccccc2)c1 [Compound 3.9] |  | > 99.8 µM |  | toxicity to HB-2 cells (in words) (HB-2 cells): do not exhibit any cellular toxicity; toxicity to MDA-MB-231 cells (in words) (MDA-MB-231 cells): do not exhibit any cellular toxicity
OB(O)c1cc(Br)cc(N2CCOCC2)c1 [Compound 3.1] | 0.84 µM |  |  | 
Cc1ccc(B(O)O)cc1OCc1ccccc1 [Compound 2] | 0.057 µM | 42.9 µM | > 300 µM | toxicity to HB-2 cells (in words) (HB-2 cells): low toxicity; IC50 (HB-2 cells): 20.5 µM; IC50 (MDA-MB-231 cells): > 100 µM
Cc1ccc(B(O)O)cc1Br [Compound 1] | 0.095 µM | > 99.8 µM | > 1000 µM | IC50 (HB-2 cells): > 100 µM; IC50 (MDA-MB-231 cells): > 100 µM
CN1CCN(c2cc(Br)cc(B(O)O)c2)CC1 [Compound 3.4] | 2 µM |  |  | 
OB(O)c1cc(Br)cc(Oc2ccccc2)c1 [Compound 3.10, 3-Bromo-5-phenoxyfenylboronic acid] |  |  |  | toxicity to HB-2 cells (in words) (HB-2 cells): do not exhibit any cellular toxicity; toxicity to MDA-MB-231 cells (in words) (MDA-MB-231 cells): do not exhibit any cellular toxicity
OB(O)c1ccc(OCc2ccccc2F)c(Cl)c1 [Compound 5, 3-Chloro-4(2′-fluorobenzyloxy) phenylboronic acid] | 0.32 µM | 90.3 µM | > 100 µM | toxicity to HB-2 cells (in words) (HB-2 cells): low toxicity; IC50 (HB-2 cells): 77.8 µM; IC50 (MDA-MB-231 cells): > 100 µM
OB(O)c1cc(Br)cc(N2CCCCC2)c1 [Compound 3.3] | 0.29 µM |  |  | 
OB(O)c1ccccc1 [PBA, phenylboronic acid, reference compound] | 0.88 µM |  | > 10000 µM | 
CC(C)Oc1cc(Br)cc(B(O)O)c1 [Compound 3.7, 3-Bromo-5-isopropoxyphenylboronic acid] | 0.15 µM |  |  | 
OB(O)c1cc(Br)c2ccccc2c1F [Compound 3.6] | 0.14 µM |  |  | 
